Series [1] deals with subjects with hypertriglyceridemia and metabolic syndrome. In words: Phase III placebo-controlled study of 130 mg fenofibrate, with and without food: prevalence of metabolic syndrome. To be noted: for prevalence of metabolic syndrome at end of treatment: 130 mg daily.
Description: Objectives: A primary outcome variable was the difference in the prevalence of metabolic syndrome between the group treated with 130 mg of fenofibrate (“the treatment group”) versus the placebo group (“the placebo”). A related outcome variable included the effect of food on fenofibrate efficacy.
Methodology: This was a multicenter, prospective, double-blind, double-dummy, randomized, placebo-controlled, parallel group study of a micronized formulation of fenofibrate at a single daily dose of 130 mg. Subjects took prescription or over-the-counter lipid lowering medications or dietary supplements known to alter lipid levels or other aspects of the lipid profile until week 6 (visit 1). At week 6, subjects were instructed to follow the therapeutic lifestyle changes diet, in accordance with the Food and Drug Administration guidelines for clinical evaluations of lipid-altering agents.
Also at week 6, qualifying subjects were stratified by triglyceride level and randomized in a double-blind fashion to one of three groups, the first two of which constituted the treatment group and the third group constituted the placebo: A) 1 fenofibrate capsule (130 mg) with food and 1 placebo capsule without food; B) 1 fenofibrate capsule (130 mg) without food (three hours after a meal) and 1 placebo capsule with food; and C) placebo, 1 placebo capsule with food and 1 placebo capsule without food. […] One capsule was taken with the subjects' evening meal and a second capsule was taken three hours post-meal. The first dosing occurred on the first evening after visit 4. A lipid profile was measured at every visit, and other measurements were taken regularly throughout the study.
Treatment duration was eight weeks.
The conditions of series [2]: cited from earlier work.
A further series deals with high-risk patients. Particulars: particularly those with diabetes and insulin resistance; cited from earlier work.

This is an account of results in patent US8026281B2, “Treating metabolic syndrome with fenofibrate” (Lupin Atlantis Holdings, S.A., priority 2004, dated 2011).

As for `CC(C)OC(=O)C(C)(C)Oc1ccc(C(=O)c2ccc(Cl)cc2)cc1` [fenofibrate, 2-[4-(4-chlorobenzoyl)phenoxy]-2-methyl-propanoic acid, 1-methylethyl ester], in series [1] (fenofibrate formulation 130 mg, eight weeks), the “safety and efficacy conclusion” value is “safe and efficacious”. In addition, in series [1] (fenofibrate formulation 130 mg, with food versus without food), the food effect result is given as “does not exhibit a food effect”. In addition, the “prevalence of metabolic syndrome at end of treatment” value in series [1] (fenofibrate with food group, eight weeks, reduced from 96.3% prevalence) worked out at 74.1%; in series [1] (fenofibrate without food group (three hours after a meal), eight weeks, reduced from 97.6% prevalence), 66.7%; in series [1] (whole treatment group, eight weeks, reduced from 96.9% prevalence, placebo 98.0% to 86.0%) it was 70.8%. The “decrease in number of subjects having three or more metabolic syndrome criteria” value in series [1] (treatment group (fenofibrate 130 mg once daily, with or without food), eight-week treatment, placebo 12%, chi-square p-value=0.0416) is given as “more than 25%”.
For the compound `CC(C)(Oc1ccc(C(=O)c2ccc(Cl)cc2)cc1)C(=O)O` [fenofibric acid], the “mean concentration in the plasma” value in series [2] (dose of 300 mg per day) is approximately 15000 ng/mL. The “time of maximum concentration in the plasma after ingestion of the medicinal product” value in series [2] (on average) is given as “five”. For the same compound, in series [2] (plasma), the “half-life for elimination from the plasma” value is approximately 20 h.
Consider `Cc1ccc(C)c(OCCCC(C)(C)C(=O)O)c1` [gemfibrozil], for which the “risk for major cardiovascular events” value in the series with high-risk patients is “reduced the risk for major cardiovascular events”.
